Experimental data taken from ChEMBL document CHEMBL5543118, “Optimization of Potent Ligands for the E3 Ligase DCAF15 and Evaluation of Their Use in Heterobifunctional Degraders” (J Med Chem, 2024).
The source made the active and inactive calls. The rule behind the calls is not given here.

Key:
[1] = Lipophilicity, logD of the compound in octanol/water at pH 7.4 by shake flask method; format: physicochemical
[2] = Binding affinity to human His6-HALO-TEV DCAF15/DDB1/DDA1 complex assessed as displacement of fluorophore tagged indisulam analogue from complex measured after 1 hr by TR-FRET assay
[3] = molecular target: T1, Bromodomain-containing protein 4/DDB1- and CUL4-associated factor 15 (Homo sapiens, UniProt O60885+Q66K64); test: PROTAC activity at HiBiT tag-BRD4/DCAF15 E3 ligase (unknown origin) expressed in HEK293 cells in presence of (+)-JQ1 incubated for 24 hrs by HiBit degradation assay; format: cell-based
T1 sequence (Q66K64 whole entry, looked up, other chains not shown): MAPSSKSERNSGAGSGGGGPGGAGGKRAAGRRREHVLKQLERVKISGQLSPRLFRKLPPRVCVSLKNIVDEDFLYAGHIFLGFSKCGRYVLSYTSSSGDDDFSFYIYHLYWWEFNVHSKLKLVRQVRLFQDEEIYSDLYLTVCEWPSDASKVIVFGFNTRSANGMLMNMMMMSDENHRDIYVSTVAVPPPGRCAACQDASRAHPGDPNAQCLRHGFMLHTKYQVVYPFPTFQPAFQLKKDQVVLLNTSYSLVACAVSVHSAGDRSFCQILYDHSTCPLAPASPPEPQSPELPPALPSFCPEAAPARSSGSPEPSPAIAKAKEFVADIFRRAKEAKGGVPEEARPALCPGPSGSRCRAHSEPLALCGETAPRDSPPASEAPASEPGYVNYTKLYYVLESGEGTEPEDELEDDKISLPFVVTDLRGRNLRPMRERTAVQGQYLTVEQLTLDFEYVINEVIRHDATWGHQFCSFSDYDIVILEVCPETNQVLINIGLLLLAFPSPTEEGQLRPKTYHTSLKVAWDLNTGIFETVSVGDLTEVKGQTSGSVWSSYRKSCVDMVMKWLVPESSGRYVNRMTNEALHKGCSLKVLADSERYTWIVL

HEK293 = test: Cytotoxicity against human HEK293 cells expressing HiBiT tag-BRD4 assessed as cell viability at 10 uM measured after 24 hrs; format: toxicity, cell-based; details: hek293, 24 h
[4] = molecular target: DDB1- and CUL4-associated factor 15/RNA-binding protein 39 (Homo sapiens) (UniProt Q14498+Q66K64); test: PROTAC activity at RBM39/DCAF15 E3 ligase (unknown origin) assessed as degradation at 0.1 to 10 uM by Western blotting analysis; format: cell-based; details: HEK293, dose 0.1-10 µM
Sequence of DDB1- and CUL4-associated factor 15/RNA-binding protein 39 (Homo sapiens) (Q14498 whole entry, looked up): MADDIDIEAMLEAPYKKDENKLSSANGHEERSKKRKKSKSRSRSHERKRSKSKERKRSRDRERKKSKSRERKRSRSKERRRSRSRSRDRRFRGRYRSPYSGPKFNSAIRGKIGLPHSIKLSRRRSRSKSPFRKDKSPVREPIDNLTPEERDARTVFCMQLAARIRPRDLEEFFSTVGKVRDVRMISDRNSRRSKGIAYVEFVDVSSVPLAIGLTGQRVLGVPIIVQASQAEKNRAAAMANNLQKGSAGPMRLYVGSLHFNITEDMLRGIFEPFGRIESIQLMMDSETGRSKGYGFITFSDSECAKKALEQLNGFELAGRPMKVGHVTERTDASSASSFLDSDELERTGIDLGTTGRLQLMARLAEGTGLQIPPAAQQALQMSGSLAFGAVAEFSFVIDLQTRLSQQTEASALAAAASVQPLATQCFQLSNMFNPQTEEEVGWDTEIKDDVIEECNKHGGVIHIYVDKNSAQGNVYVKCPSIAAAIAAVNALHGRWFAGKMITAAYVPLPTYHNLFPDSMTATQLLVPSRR
Sequence of DDB1- and CUL4-associated factor 15/RNA-binding protein 39 (Homo sapiens) (Q66K64 whole entry, looked up): as the sequence (Q66K64 whole entry, looked up, other chains not shown) above

[5] = Aqueous solubility of the compound in DMSO measured for 20 to 24 hrs; format: physicochemical; details: time 20-24 hrs
[6] = molecular target: T1, Bromodomain-containing protein 4/DDB1- and CUL4-associated factor 15; test: PROTAC activity at HiBiT tag-BRD4/DCAF15 E3 ligase (unknown origin) expressed in HEK293 cells assessed as maximal degradation incubated for 6 hrs by HiBit degradation assay relative to control; format: cell-based
[7] = molecular target: T1, Bromodomain-containing protein 4/DDB1- and CUL4-associated factor 15; test: PROTAC activity at HiBiT tag-BRD4/DCAF15 E3 ligase (unknown origin) expressed in HEK293 cells incubated for 6 hrs by HiBit degradation assay; format: cell-based
[8] = molecular target: T1, Bromodomain-containing protein 4/DDB1- and CUL4-associated factor 15; test: PROTAC activity at HiBiT tag-BRD4/DCAF15 E3 ligase (unknown origin) expressed in HEK293 cells in presence of MLN4924 incubated for 24 hrs by HiBit degradation assay; format: cell-based
[9] = molecular target: T1, Bromodomain-containing protein 4/DDB1- and CUL4-associated factor 15; test: PROTAC activity at BRD4/DCAF15 E3 ligase (unknown origin) incubated for 16 hrs by immunoblot analysis; format: protein assay
[10] = molecular target: T1, Bromodomain-containing protein 4/DDB1- and CUL4-associated factor 15; test: PROTAC activity at BRD4/DCAF15 E3 ligase (unknown origin) assessed as maximal degradation incubated for 16 hrs by immunoblot analysis relative to control; format: protein assay

SMILES	logD [1]	IC50 [2] [nM]	also measured
CNC(=O)c1oc(S(=O)(=O)Nc2ccc(Cl)c3c(Cl)c[nH]c23)cc1C	2.9	576	
CN(C)C(=O)c1ccc(S(=O)(=O)Nc2ccc(Cl)c3c(Cl)c[nH]c23)o1	2.3	675	
N#Cc1cccc(S(=O)(=O)Nc2ccc(F)c3c(C#N)c[nH]c23)c1	2	7010	
Cc1cc(S(=O)(=O)Nc2ccc(Cl)c3c(Cl)c[nH]c23)sc1C(=O)N(C)C	3.1	224	
CNC(=O)C1CN(C(=O)c2oc(S(=O)(=O)Nc3ccc(Cl)c4c(Cl)c[nH]c34)cc2C)C1	1.9	979	
Cc1coc(S(=O)(=O)Nc2ccc(Cl)c3c(Cl)c[nH]c23)c1	3.7	1180	
CN(C)C(=O)c1nc(S(=O)(=O)Nc2ccc(Cl)c3c(Cl)c[nH]c23)cn1C	2.2	842	
Cc1cc(S(=O)(=O)Nc2ccc(Cl)c3c(Cl)c[nH]c23)oc1C(=O)N(C)C	2.7	221	
CNC(=O)[C@H]1CCN(C(=O)c2oc(S(=O)(=O)Nc3ccc(Cl)c4c(Cl)c[nH]c34)cc2C)C1	2	692	
N#Cc1cccc(S(=O)(=O)Nc2ccc(Cl)c3c(Cl)c[nH]c23)c1	4	709	
CNC(=O)C1CCN(C(=O)c2oc(S(=O)(=O)Nc3ccc(Cl)c4c(Cl)c[nH]c34)cc2C)CC1	2.1	53	Activity [3]: Active; Activity (HEK293): Toxic; Activity [4]: inactive
COCCNC(=O)c1oc(S(=O)(=O)Nc2ccc(Cl)c3c(Cl)c[nH]c23)cc1C	2.8	505	
COc1ccc(NS(=O)(=O)c2cccc(C#N)c2)c2[nH]cc(C#N)c12	2.2	> 100000	
Cc1cc(S(=O)(=O)Nc2ccc(Cl)c3c(Cl)c[nH]c23)oc1C(=O)N1CCC(C(=O)N2CCN(CC3CCN(C(=O)C[C@@H]4N=C(c5ccc(Cl)cc5)c5c(sc(C)c5C)-n5c(C)nnc54)CC3)CC2)CC1	> 4	74	solubility [5]: < 0.16 µM; Emax [6]: 69%; DC50 [7]: 453 nM; Activity [8]: inactive
Cc1cc(S(=O)(=O)Nc2ccc(Cl)c3c(Cl)c[nH]c23)oc1C(=O)N1CCN(C)CC1	2.2	393	
Cc1sc(S(=O)(=O)Nc2ccc(Cl)c3c(Cl)c[nH]c23)cc1C(=O)N(C)C	3	615	
N#Cc1cccc(S(=O)(=O)Nc2ccc(Cl)c3c(C#N)c[nH]c23)c1	2.4	1550	
Cc1cc(S(=O)(=O)Nc2ccc(Cl)c3c(Cl)c[nH]c23)oc1C(=O)N1CCCCC1	3.6	46	
Cc1sc(S(=O)(=O)Nc2ccc(Cl)c3c(Cl)c[nH]c23)nc1C(=O)N(C)C	1.5	506	
N#Cc1cccc(S(=O)(=O)Nc2cc(Cl)cc3c(Cl)c[nH]c23)c1	3.8	1460	
N#Cc1cccc(S(=O)(=O)Nc2ccc(C#N)c3c(Cl)c[nH]c23)c1	1.7	4390	
Cc1ccc(NS(=O)(=O)c2cccc(C#N)c2)c2[nH]cc(C#N)c12 [E-7820]	2.6	2320	
CN(C)C(=O)c1oc(S(=O)(=O)Nc2ccc(Cl)c3c(Cl)c[nH]c23)cc1Cl	2.3	395	
Cc1sc2c(c1C)C(c1ccc(Cl)cc1)=N[C@@H](CC(=O)NCCOCCOCCNC(=O)c1cccc(S(=O)(=O)Nc3ccc(C)c4c(C#N)c[nH]c34)c1)c1nnc(C)n1-2			DC50 [9]: 10800 nM; Emax [10]: 98%
CNC(=O)[C@@H]1CCN(C(=O)c2oc(S(=O)(=O)Nc3ccc(Cl)c4c(Cl)c[nH]c34)cc2C)C1	2	279	
